Experiments:
[1] = Competitive antagonist activity at alpha-adrenergic receptor in New Zealand rabbit aorta assessed as inhibition of methoxamine-induced contraction incubated for 1 hr; format: tissue-based, Oryctolagus cuniculus
[2] = biological target: Adrenergic receptor alpha; experiment: Displacement of [3H]dihydroazapetine from alpha-adrenoreceptor in rat vas deferens

| Structure (SMILES) | pA2 [1] | pKd [2] |
| --- | --- | --- |
| CCN(CC)C[C@H]1COc2ccccc2O1 | 5.6 | 6.21 |
| CCN(CC)C[C@@H]1COc2ccccc2O1 | 5.26 | – |
| c1ccc2c(c1)OC[C@H](CN1CCCCC1)O2 | 7.12 | – |
| c1ccc2c(c1)OC[C@@H](CN1CCCCC1)O2 | 5.86 | – |
| c1ccc2c(c1)OC[C@H](CN1CCN(C[C@H]3COc4ccccc4O3)CC1)O2 | 7.66 | 6.85 |
| c1ccc2c(c1)OC[C@@H](CN1CCN(C[C@@H]3COc4ccccc4O3)CC1)O2 | 6.38 | 6.25 |
| c1ccc2c(c1)OCC(CN1CCN(CC3COc4ccccc4O3)CC1)O2 (stereo not given) | 7.53 | – |

Reference: ChEMBL document CHEMBL3244203, “Absolute configuration of glycerol derivatives. 4. Synthesis and pharmacological activity of chiral 2-alkylaminomethylbenzodioxans, competitive alpha-adrenergic antagonists” (J Med Chem, 1977)
